Source: patent US20040171489A1, “Synergistic active compound combinations for controlling harmful plants” (priority 1998, published 2004)

What was measured:
winter wheat [1] = test: Example 9 field trials, application 1-3 leaf stage broad-leaved weeds: crop damage; assay type: in vivo, Triticum aestivum; settings: 100 g of ai/ha; 120 to 160 days after application
Protocol: (§1) The herbicidal efficacy of the active compounds or active compound mixtures was scored visually using the treated plots in comparison to untreated control plots. The damage and development of all above-ground parts of the plants were recorded. Scoring was carried out using a percentage scale (100% effect=all plants killed; 50% effect=50% of the plants and the green parts of the plants killed; 0% effect=no noticeable effect=like control plot. The scores of in each case 4 plots were averaged.
(§2) If the observed activity values already exceed the formal sum of the values for the trials with the individual applications, they also exceed the expected value according to Colby which is calculated using the following formula and which is likewise considered to be an indication of synergism (cf. S. R. Colby; in Weeds 15 (1967) p. 20 to 22):
(§3) Crop plants were grown outdoors on plots under natural outdoor conditions, and seeds or rhizome pieces of typical harmful plants were laid out or the natural weed growth was utilized. Treatment with the compositions according to the invention was carried out after the harmful plants had emerged and the crop plants were, generally, at the 2- to 4-leaf stage; in some cases (as stated), application of individual active compounds or active compound combinations was carried out pre-emergence (cf. Section 1) or post-emergence (cf. Section 2) or as a sequential treatment partly pre-emergence and/or post-emergence. After the application, for example 2, 4, 6 and 8 weeks after the application, the effect of the preparations was scored visually by comparison with untreated controls (cf. scoring in Section 1). In the field trial as well, the compositions according to the invention have synergistic herbicidal activity against a broad spectrum of economically important weed grasses and broad-leaved weeds. […] Moreover, the effects in essential phases of the scoring period were above the expected values according to Colby, also indicating synergism. […]

Lamium purpurea = test: Example 12 field trial, 2- to 4-leaf stage: herbicidal effect; assay type: in vivo; settings: 42 days after application
Protocol: as §1, §2
(§4) Crop plants were grown outdoors on plots under natural outdoor conditions, and seeds or rhizome pieces of typical harmful plants were laid out or the natural weed growth was utilized. Treatment with the compositions according to the invention was carried out after the harmful plants had emerged and the crop plants were, generally, at the 2- to 4-leaf stage; in some cases (as stated), application of individual active compounds or active compound combinations was carried out pre-emergence (cf. Section 1) or post-emergence (cf. Section 2) or as a sequential treatment partly pre-emergence and/or post-emergence. After the application, for example 2, 4, 6 and 8 weeks after the application, the effect of the preparations was scored visually by comparison with untreated controls (cf. scoring in Section 1). In the field trial as well, the compositions according to the invention have synergistic herbicidal activity against a broad spectrum of economically important weed grasses and broad-leaved weeds. […] Moreover, the effects in essential phases of the scoring period were above the expected values according to Colby, also indicating synergism. In contrast, the crop plants were, as a consequence of the treatments with the herbicidal compositions, damaged only to a small degree, if at all.

winter wheat [2] = test: Example 12 field trial, 2- to 4-leaf stage: crop damage; assay type: in vivo, Triticum aestivum; settings: 42 days after application
Protocol: as §1, §2, §4

summer wheat = test: Example 13 field trial, 2- to 4-leaf stage: crop damage; assay type: in vivo, Triticum aestivum; settings: 17 days after application
Protocol: as §1, §2, §4

Matricaria chamomilla = test: Example 14 field trial, 2- to 4-leaf stage: herbicidal effect; assay type: in vivo; settings: 28 days after application
Protocol: as §1, §2, §4

Lamium amolexicaule = test: Example 15 field trial, 2- to 4-leaf stage: herbicidal effect; assay type: in vivo; settings: 28 days after application
Protocol: as §1, §2, §4

winter wheat [3] = test: Example 15 field trial, 2- to 4-leaf stage: crop damage; assay type: in vivo, Triticum aestivum; settings: 28 days after application
Protocol: as §1, §2, §4

winter barley = test: Example 16 field trial, post-emergence, 2- to 3-leaf stage: crop damage; assay type: in vivo, Hordeum vulgare; settings: 50 g of ai/ha; 69 days after application
Protocol: as §1, §2
(§5) Crop plants were grown outdoors on plots under natural outdoor conditions, and seeds or rhizome pieces of typical harmful plants were laid out or the natural weed growth was utilized. […] After the application, for example 2, 4, 6 and 8 weeks after the application, the effect of the preparations was scored visually by comparison with untreated controls (cf. scoring in Section 1). […]

Zea mays (corn) = test: Example 17 field trial, pre-emergence: crop damage; assay type: in vivo; settings: 16 days after application
Text: Seeds or rhizome pieces of monocotyledonous and dicotyledonous weed plants are placed in sandy loam soil in pots and covered with soil. The compositions, formulated in the form of concentrated aqueous solutions, wettable powders or emulsion concentrates, are then applied to the surface of the soil cover as aqueous solution, suspension or emulsion at an application rate of 600 to 800 l of water/ha (converted), in various dosages. After the treatment, the pots are placed in a greenhouse and kept under good growth conditions for the weeds. After the test plants have emerged, the damage to the plants or the negative effects on the emergence is scored visually after a test period of 3 to 4 weeks by comparison with untreated controls. As shown by the test results, the compositions according to the invention have good herbicidal pre-emergence activity against a broad spectrum of weed grasses and broad-leaved weeds.
The herbicidal efficacy of the active compounds or active compound mixtures was scored visually using the treated plots in comparison to untreated control plots. The damage and development of all above-ground parts of the plants were recorded. […]
as §2, §5

Euphorbia heterophylla = test: Example 20 field trial, 3-leaf stage: herbicidal effect; assay type: in vivo; settings: 31 days after application
Protocol: as §1, §2, §4

Oryza sativa (rice) [4] = test: Example 21 field trial, 4-leaf stage: crop damage; assay type: in vivo; settings: 42 days after application
Protocol: as §1, §2, §3

Monochoria vaginalis = test: Example 22 field trial, 2-leaf stage: herbicidal effect; assay type: in vivo; settings: 14 days after application
Protocol: as §1, §2, §4

Oryza sativa (rice) [5] = test: Example 22 field trial, 2-leaf stage: crop damage; assay type: in vivo; settings: 14 days after application
Protocol: as §1, §2, §4

## CC(C)(F)c1nc(N)nc(NC(CCc2ccccc2)C2CCC2)n1 (stereo not drawn) [(A1), 4-amino-6-(1-fluoro-1-methylethyl)-2-(3-phenyl-1-cyclobutylpropylamino)-1,3,5-triazine]
Winter wheat [1]
  damage, TRZAW: 0%
Lamium purpurea; 12.5 g of ai/ha
  herbicidal effect, LAMPU: 25%
Lamium purpurea; 25 g of ai/ha
  herbicidal effect, LAMPU: 65%
Lamium purpurea; 50 g of ai/ha
  herbicidal effect, LAMPU: 70%
Winter wheat [2]; 12.5 g of ai/ha
  damage, TRZAW: 0%
Winter wheat [2]; 25 g of ai/ha
  damage, TRZAW: 0%
Winter wheat [2]; 50 g of ai/ha
  damage, TRZAW: 0%
Summer wheat; 62.5 g of ai/ha
  damage, TRZAS: 5%
Summer wheat; 125 g of ai/ha
  damage, TRZAS: 13%
Matricaria chamomilla; 25 g of ai/ha
  herbicidal effect, MATCH: 43%
Matricaria chamomilla; 50 g of ai/ha
  herbicidal effect, MATCH: 58%
Matricaria chamomilla; 100 g of ai/ha
  herbicidal effect, MATCH: 73%
Lamium amolexicaule; 25 g of ai/ha
  herbicidal effect, LAMAM: 60%
Lamium amolexicaule; 50 g of ai/ha
  herbicidal effect, LAMAM: 74%
Lamium amolexicaule; 100 g of ai/ha
  herbicidal effect, LAMAM: 80%
Winter wheat [3]; 25 g of ai/ha
  damage, TRZAW: 0%
Winter wheat [3]; 50 g of ai/ha
  damage, TRZAW: 2%
Winter wheat [3]; 100 g of ai/ha
  damage, TRZAW: 2%
Winter barley
  herbicidal effect (%), HORVW (crop): 0%
Zea mays (corn); 50 g of ai/ha
  damage, ZEAMA: 0%
Zea mays (corn); 100 g of ai/ha
  damage, ZEAMA: 0%
Euphorbia heterophylla; 25 g of ai/ha
  herbicidal effect, EPHHL: 15%
Euphorbia heterophylla; 50 g of ai/ha
  herbicidal effect, EPHHL: 50%
Euphorbia heterophylla; 100 g of ai/ha
  herbicidal effect, EPHHL: 60%
Oryza sativa (rice) [4]; 25 g of ai/ha
  damage, ORYSA: 0%
Oryza sativa (rice) [4]; 50 g of ai/ha
  damage, ORYSA: 0%
Oryza sativa (rice) [4]; 100 g of ai/ha
  damage, ORYSA: 0%
Monochoria vaginalis; 25 g of ai/ha
  herbicidal effect, MOOVA: 3%
Monochoria vaginalis; 50 g of ai/ha
  herbicidal effect, MOOVA: 90%
Monochoria vaginalis; 100 g of ai/ha
  herbicidal effect, MOOVA: 95%
Oryza sativa (rice) [5]; 25 g of ai/ha
  damage, ORYSA: 0%
Oryza sativa (rice) [5]; 50 g of ai/ha
  damage, ORYSA: 10%
Oryza sativa (rice) [5]; 100 g of ai/ha
  damage, ORYSA: 13%
